# Tests used:
# [1] = test system: Olfr1178; assay: OR transcript level by RT-qPCR after in vivo odorant exposure; parameters: species or system mouse; settings: 5% odorant, 5 hours
# Procedure: (§1) In vivo exposure to odorant: Starting 48 h before experiments, mice were habituated to pure DMSO on a cotton ball. 200 μl were pipetted directly onto the cotton and placed in the cage, replacing any cotton that was already in the cage for nest-making purposes.
# On the day of the experiment, mice receiving odorants were transferred to a different room, where they were exposed to a cotton ball on which 200 μl of odorant diluted in pure DMSO were deposited. Exposures started in the morning between 8 and 10 am (that is two hours after lights were on) and mice were killed and dissected between 1 and 3 pm. […]
# RNA concentrations were determined using an Amersham Ultrospec® 3100 Pro spectrophotometer, and RNA quality was evaluated with an Agilent Technologies 2100 Bioanalyzer®. […]
# qPCR Ct values were analyzed using an in-house developed Microsoft Excel® macro file. […] Ct values were converted to quantities relative to the maximum for each given gene. Selected reference genes were then analyzed for variance using the geNorm algorithm. […]
# Adult C57BL/6 mice were exposed to 5% acetophenone for 5 hours, and the level of transcripts of odorant receptors' genes were measured by RT-qPCR on extracts of olfactory epithelia from these mice, as described in the materials and methods section.
# [2] = target: T1, olfr143 (Mus musculus, UniProt P34985); assay: as above; parameters: key: The transcript downregulation of 21 out of the 26 olfactory receptor candidates obtained by RNAseq was confirmed by qPCR; false RNAseq positive candidates, namely OR candidates for which in fact mRNA was not downregulated following acetophenone exposure; settings: 5% acetophenone exposure
# T1 construct: from tissue; host or cells: main olfactory epithelium of living mice
# Procedure: as §1
# (§2) On the day of the experiment, mice receiving odorants were transferred to a different room, where they were exposed to a cotton ball on which 200 μl of odorant diluted in pure DMSO were deposited. Exposures started in the morning between 8 and 10 am (that is two hours after lights were on) and mice were killed and dissected between 1 and 3 pm. […] If a number of different odorants were tested in the same experiment, a different overpressurized room would always be used for each odorant to avoid odor cross-contamination.
# (§3) After odorant exposure, mice were killed by cervical dislocation and immediately decapitated. The main olfactory epithelia (MOE), were harvested in their entirety and transferred to a tube containing 600 μl of lysis buffer and β-mercaptoethanol (RNAeasy kit, Qiagen, following the manufacturer protocol) and a 0.5 cm diameter steel ball, and then put on ice. Samples were then homogenized using a FastPrep®-24 instrument (MP Biomedicals) at 6 m/s for 30 s and left on ice. RNA extraction was performed on all samples in parallel using the Qiagen RNeasy Mini® kit following the manufacturer's instructions. Two DNase treatments were performed on all samples: first using the Qiagen RNase-Free DNase Set® and then using the Life Technologies Ambion DNase I® kit. RNA samples were then aliquoted and stored at −80° C.
# (§4) RNA concentrations were determined using an Amersham Ultrospec® 3100 Pro spectrophotometer, and RNA quality was evaluated with an Agilent Technologies 2100 Bioanalyzer®. Each reverse transcription was performed with 0.5 μg RNA using the Takara Primescript® kit, in a final volume of 10 μl. Primers for reverse transcription were equal mixtures of poly-T nucleotides and random hexamers. Negative controls (omitting the reverse transcriptase enzyme) were performed for each sample. 1/14th of the cDNA preparation was used for each triplicated qPCR reaction.
# (§5) qPCR Ct values were analyzed using an in-house developed Microsoft Excel® macro file. Triplicate values were compared and outliers (values with a difference higher than 0.5 Ct to their nearest neighbor) were discarded. The number of conditions with an outlying value was always less than 10% of the total number of conditions. Ct values were converted to quantities relative to the maximum for each given gene. Selected reference genes were then analyzed for variance using the geNorm algorithm. All values were normalized with the olfactory tissue-specific genes Omp and Adcy3. β-Actin was used as a non-tissue-specific reference gene to control for differences in dissection between samples.
# (§6) Mice (n=6) were exposed to 5% acetophenone or to a “neutral” control condition for 5 hours. An olfactory cDNA library corresponding to each animal was deep sequenced and the ratios of odorant receptor mRNA concentrations relative to controls were plotted (FIG. 3). […] Based on transcriptional downregulation levels observed by RNAseq following acetophenone exposure, a list of 26 candidate responsive ORs was determined (FIG. 3), that reached 74% decrease (Olfr145) or even over 80% (Olfr169) relative to controls. […] The transcript downregulation of 21 out of the 26 olfactory receptor candidates obtained by RNAseq was confirmed by qPCR.
# [3] = target: T2, olfr145 (Mus musculus, UniProt Q60882); assay: as above; parameters: key: The transcript downregulation of 21 out of the 26 olfactory receptor candidates obtained by RNAseq was confirmed by qPCR; false RNAseq positive candidates, namely OR candidates for which in fact mRNA was not downregulated following acetophenone exposure; settings: 5% acetophenone exposure
# T2 construct: from tissue; host or cells: main olfactory epithelium of living mice
# Procedure: as §1, §2, §3, §4, §5, §6
# [4] = target: T3, olfr19 (Mus musculus, UniProt Q9JHB2); assay: as above; parameters: key: The transcript downregulation of 21 out of the 26 olfactory receptor candidates obtained by RNAseq was confirmed by qPCR; false RNAseq positive candidates, namely OR candidates for which in fact mRNA was not downregulated following acetophenone exposure; settings: 5% acetophenone exposure
# T3 construct: from tissue; host or cells: main olfactory epithelium of living mice
# Procedure: as §1, §2, §3, §4, §5, §6
# [5] = target: T4, olfr476 (Mus musculus, UniProt Q8VGI4); assay: as above; parameters: key: The transcript downregulation of 21 out of the 26 olfactory receptor candidates obtained by RNAseq was confirmed by qPCR; false RNAseq positive candidates, namely OR candidates for which in fact mRNA was not downregulated following acetophenone exposure; settings: 5% acetophenone exposure
# T4 construct: from tissue; host or cells: main olfactory epithelium of living mice
# Procedure: as §1, §2, §3, §4, §5, §6
# [6] = target: T5, olfr478 (Mus musculus, UniProt Q8VG04); assay: as above; parameters: key: The transcript downregulation of 21 out of the 26 olfactory receptor candidates obtained by RNAseq was confirmed by qPCR; false RNAseq positive candidates, namely OR candidates for which in fact mRNA was not downregulated following acetophenone exposure; settings: 5% acetophenone exposure
# T5 construct: from tissue; host or cells: main olfactory epithelium of living mice
# Procedure: as §1, §2, §3, §4, §5, §6
# [7] = target: T6, olfr490 (Mus musculus, UniProt Q8VFD2); assay: as above; parameters: key: The transcript downregulation of 21 out of the 26 olfactory receptor candidates obtained by RNAseq was confirmed by qPCR; false RNAseq positive candidates, namely OR candidates for which in fact mRNA was not downregulated following acetophenone exposure; settings: 5% acetophenone exposure
# T6 construct: from tissue; host or cells: main olfactory epithelium of living C57BL/6 mice
# Procedure: as §1, §2, §3, §4, §5, §6
# [8] = target: T7, Olfr556 (Mus musculus, UniProt B2RRG2); assay: OR transcript downregulation by RNAseq after in vivo exposure; parameters: from tissue; host or cells: main olfactory epithelium of exposed mice; settings: 5% odorant, 5 hours, reduction larger than 20% = downregulated
# T7 sequence (B2RRG2 1-324): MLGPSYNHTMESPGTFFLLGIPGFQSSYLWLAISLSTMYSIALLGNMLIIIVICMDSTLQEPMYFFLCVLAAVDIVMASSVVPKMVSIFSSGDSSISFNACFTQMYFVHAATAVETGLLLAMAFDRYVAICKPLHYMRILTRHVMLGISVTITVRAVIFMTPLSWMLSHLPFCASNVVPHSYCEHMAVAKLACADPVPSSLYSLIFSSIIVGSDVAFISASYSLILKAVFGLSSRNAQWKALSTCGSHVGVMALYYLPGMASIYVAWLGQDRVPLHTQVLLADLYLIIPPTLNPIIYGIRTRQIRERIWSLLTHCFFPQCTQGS
# Procedure: Animals were exposed to 5% acetophenone for 5 hours before RNA extraction (as previously described). cDNA libraries were generated with the Truseq RNA and DNA sample preparation kits after selection of polyA-containing mRNAs. Adapters for RNAseq multiplexing were added to the cDNAs. The cDNA libraries were sequenced with a HiSeq®2500 Sequencing system. 100 bp reads were mapped using Bowtie2 with a 28 bp seed. The differential gene expression analyses were performed with DESeq2. Because of the high sequence similarity between OR gene paralogs, some reads are mapped to multiple OR genes. These reads were removed from the analysis.
# as §6
# T5 sequence (Q8VG04 whole entry): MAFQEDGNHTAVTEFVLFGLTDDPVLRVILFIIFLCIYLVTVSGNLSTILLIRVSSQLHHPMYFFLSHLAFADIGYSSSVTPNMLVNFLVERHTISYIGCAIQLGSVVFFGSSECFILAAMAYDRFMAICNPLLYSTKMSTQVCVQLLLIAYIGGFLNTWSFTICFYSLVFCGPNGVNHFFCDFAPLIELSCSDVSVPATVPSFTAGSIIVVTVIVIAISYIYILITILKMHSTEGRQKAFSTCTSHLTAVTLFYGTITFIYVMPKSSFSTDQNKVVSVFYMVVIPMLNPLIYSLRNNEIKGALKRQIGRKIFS
# T2 sequence (Q60882 whole entry): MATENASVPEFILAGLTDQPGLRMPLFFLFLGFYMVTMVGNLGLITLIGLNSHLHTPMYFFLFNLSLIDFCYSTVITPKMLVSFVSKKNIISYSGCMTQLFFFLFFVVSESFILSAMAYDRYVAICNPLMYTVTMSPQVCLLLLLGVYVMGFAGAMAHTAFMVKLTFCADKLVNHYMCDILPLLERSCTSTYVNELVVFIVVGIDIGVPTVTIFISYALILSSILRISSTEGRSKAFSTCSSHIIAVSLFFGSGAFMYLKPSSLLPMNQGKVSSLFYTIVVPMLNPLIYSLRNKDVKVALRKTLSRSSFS
# T3 sequence (Q9JHB2 whole entry): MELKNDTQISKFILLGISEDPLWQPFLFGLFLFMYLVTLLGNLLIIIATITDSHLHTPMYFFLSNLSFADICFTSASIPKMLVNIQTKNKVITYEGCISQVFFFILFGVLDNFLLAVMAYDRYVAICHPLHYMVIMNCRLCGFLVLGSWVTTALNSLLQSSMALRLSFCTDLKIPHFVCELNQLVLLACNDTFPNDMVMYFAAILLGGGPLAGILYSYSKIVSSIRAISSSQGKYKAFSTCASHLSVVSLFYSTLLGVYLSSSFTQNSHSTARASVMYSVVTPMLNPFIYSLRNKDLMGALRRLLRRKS
# T1 sequence (P34985 whole entry): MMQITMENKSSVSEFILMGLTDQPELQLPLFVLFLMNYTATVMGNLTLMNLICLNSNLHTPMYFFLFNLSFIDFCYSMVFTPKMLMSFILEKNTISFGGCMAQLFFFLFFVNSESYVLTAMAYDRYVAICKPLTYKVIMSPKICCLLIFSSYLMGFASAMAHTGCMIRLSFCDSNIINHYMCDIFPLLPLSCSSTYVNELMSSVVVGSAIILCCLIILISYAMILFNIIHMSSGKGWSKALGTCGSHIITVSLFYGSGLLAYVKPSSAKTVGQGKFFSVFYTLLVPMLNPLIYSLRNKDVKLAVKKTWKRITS
# T4 sequence (Q8VGI4 whole entry): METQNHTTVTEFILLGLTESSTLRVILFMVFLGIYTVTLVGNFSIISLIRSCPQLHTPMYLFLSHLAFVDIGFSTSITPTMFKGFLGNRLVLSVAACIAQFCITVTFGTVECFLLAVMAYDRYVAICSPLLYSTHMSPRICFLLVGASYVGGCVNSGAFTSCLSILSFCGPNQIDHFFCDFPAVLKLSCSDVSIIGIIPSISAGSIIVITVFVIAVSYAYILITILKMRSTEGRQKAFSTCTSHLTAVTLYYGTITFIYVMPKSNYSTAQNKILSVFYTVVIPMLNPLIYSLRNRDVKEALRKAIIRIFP
# T6 sequence (Q8VFD2 whole entry): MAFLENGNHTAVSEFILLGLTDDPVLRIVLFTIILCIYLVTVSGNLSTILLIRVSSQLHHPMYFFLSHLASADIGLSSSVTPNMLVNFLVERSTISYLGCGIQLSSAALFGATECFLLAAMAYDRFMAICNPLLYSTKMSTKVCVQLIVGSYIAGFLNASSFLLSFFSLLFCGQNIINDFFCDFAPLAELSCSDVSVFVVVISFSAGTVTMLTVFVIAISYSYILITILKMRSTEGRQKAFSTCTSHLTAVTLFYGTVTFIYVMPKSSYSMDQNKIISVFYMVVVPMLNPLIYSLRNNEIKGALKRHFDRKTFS
compound,measurement,setting,value
CC(=O)c1ccccc1 [acetophenone],"Olfr1178 mRNA concentration increase, fold change",[1],1.5 fold
same,olfr143 candidate OR (RNAseq) confirmed by qPCR,[2],y
same,olfr145 candidate OR (RNAseq) confirmed by qPCR,[3],y
same,olfr19 candidate OR (RNAseq) confirmed by qPCR,[4],y
same,olfr476 candidate OR (RNAseq) confirmed by qPCR,[5],y
same,olfr478 candidate OR (RNAseq) confirmed by qPCR,[6],y
same,olfr490 candidate OR (RNAseq) confirmed by qPCR,[7],n
same,Olfr556 transcript modulation (RNAseq),[8],downregulated
